Laboratory results published in BindingDB's records for doi:10.1111/cbdd.12887 (Josip Juraj Strossmayer University of Osijek, 2017).

These molecules were tested against T1, Dipeptidyl peptidase 3 (Homo sapiens, UniProt Q9NY33) (assay: DPP III Enzyme Activity Assay). Settings: pH 7.4; 37 °C.
T1 sequence (Q9NY33 whole entry): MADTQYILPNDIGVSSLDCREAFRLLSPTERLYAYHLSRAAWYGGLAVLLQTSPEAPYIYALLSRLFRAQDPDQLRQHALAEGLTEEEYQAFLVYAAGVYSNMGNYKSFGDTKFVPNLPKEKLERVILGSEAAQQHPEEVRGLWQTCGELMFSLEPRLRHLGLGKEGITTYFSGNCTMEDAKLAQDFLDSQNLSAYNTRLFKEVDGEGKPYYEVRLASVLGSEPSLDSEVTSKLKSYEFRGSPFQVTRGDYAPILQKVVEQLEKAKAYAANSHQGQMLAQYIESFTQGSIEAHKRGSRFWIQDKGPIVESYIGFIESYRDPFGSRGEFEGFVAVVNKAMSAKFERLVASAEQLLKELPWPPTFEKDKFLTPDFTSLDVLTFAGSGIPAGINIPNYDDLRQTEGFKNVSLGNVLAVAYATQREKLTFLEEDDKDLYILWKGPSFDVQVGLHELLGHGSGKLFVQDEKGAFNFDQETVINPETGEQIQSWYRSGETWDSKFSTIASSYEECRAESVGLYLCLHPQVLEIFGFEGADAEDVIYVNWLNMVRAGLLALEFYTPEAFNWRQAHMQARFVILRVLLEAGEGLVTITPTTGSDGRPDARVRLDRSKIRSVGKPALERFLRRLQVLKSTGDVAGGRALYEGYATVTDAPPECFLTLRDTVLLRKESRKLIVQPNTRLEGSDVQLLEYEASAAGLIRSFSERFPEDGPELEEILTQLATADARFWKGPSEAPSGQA
Experimental: The inhibitory activity of flavonoids toward human DPP III was assayed in a 50 mM Tris-HCl buffer, pH 7.4. In brief, recombinant human DPP III (0.29 nM) was preincubated with increasing concentrations of flavonoid first for 1 min at 25°C and then for 3 min at 37°C. The enzymatic reaction was started with Arg-Arg-NA (40 μM) as a substrate, and after the 15 min incubation at 37°C in a water bath, the reaction was stopped and the absorbance was measured using the spectrophotometric method described above[Abramić et al., Biol. Chem. Hoppe-Seyler., 369:29]. The stock solutions of flavonoids were prepared daily in dimethyl sulfoxide (DMSO, Sigma-Aldrich).
`O=c1c(O)c(-c2ccc(O)cc2)oc2cc(O)cc(O)c12` showed an IC50 of 32.9 µM. `O=c1c(O)c(-c2ccc(O)cc2O)oc2cc(O)cc(O)c12` [2-(2,4-dihydroxyphenyl)-3,5,7-trihydroxychromen-4-one] was tested, and the IC50 was 85 µM. In the case of `O=c1c(O)c(-c2ccc(O)c(O)c2)oc2cc(O)cc(O)c12` [2-(3,4-dihydroxyphenyl)-3,5,7-trihydroxy-chromone;hydrate], the IC50 is reported as 74.1 µM. With `O=c1c(O)c(-c2ccc(O)c(O)c2)oc2cc(O)ccc12` [2-(3,4-dihydroxyphenyl)-3,7-dihydroxy-chromen-4-one] the IC50 was 24.9 µM. `O=c1cc(-c2ccc(O)c(O)c2)oc2cc(O)cc(O)c12` [2-(3,4-dihydroxyphenyl)-5,7-dihydroxy-4H-chromen-4-one] showed an IC50 of 22 µM. Work on `O=c1c(O)c(-c2ccccc2)oc2ccc(O)cc12` [3,6-dihydroxy-2-phenyl-4H-chromen-4-one] yielded an IC50 of 56.4 µM. In the case of `O=c1c(O)c(-c2ccccc2)oc2cc(O)ccc12` [3,7-dihydroxy-2-phenyl-4H-chromen-4-one], the IC50 is reported as 98 µM. With `O=c1c(O)c(-c2ccccc2)oc2ccccc12` [3-hydroxy-2-phenyl-4H-chromen-4-one] the IC50 was 188 µM. `O=c1cc(-c2ccccc2)oc2cc(O)cc(O)c12` [5,7-dihydroxy-2-phenyl-4H-chromen-4-one] was tested, and the IC50 was 123 µM. For `O=c1cc(-c2ccccc2)oc2ccc(O)cc12` [6-hydroxy-2-phenyl-4H-chromen-4-one], the IC50 was 82.2 µM. Molecule `O=C1C[C@@H](c2ccccc2)Oc2ccccc21` [Flavanone] has an IC50 of 437 µM. Work on `O=c1cc(-c2ccc(O)cc2)oc2cc(O)cc(O)c12` [Naringenin, 18] yielded an IC50 of 54 µM. `O=c1c(-c2ccc(O)cc2)coc2cc(O)cc(O)c12` [Prunetol] showed an IC50 of 36.6 µM. `O=c1cc(-c2ccccc2)oc2ccccc12` [flavone] showed an IC50 of 293 µM. For `O=c1c(O)c(-c2ccccc2)oc2cc(O)cc(O)c12` [norizalpinin], the IC50 was 23.4 µM.
